From ChEMBL document CHEMBL1201862, “PubChem BioAssay data set” (2004)
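These data come from cells grown in 96-well plates and exposed to compound for 48 hours at five concentrations. Here, GI50 denotes the concentration required for 50% inhibition of growth.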 The source made the active and inactive calls. Rule as the data show it: active = GI50 up to about 1.1 µM and inactive = higher.

What was measured:
Test in all cases: growth of human tumour cells (NCI), 48 h
MOLT-4 = system: MOLT-4
DU-145 = system: DU-145
OVCAR-4 = system: OVCAR-4
CCRF-CEM = system: CCRF-CEM
MCF7 = system: MCF7
PC-3 = system: PC-3
UACC-62 = system: UACC-62
SK-MEL-2 = system: SK-MEL-2
RXF 393 = system: RXF 393
CAKI-1 = system: CAKI-1
786-0 = system: 786-0
MDA-MB-435 = system: MDA-MB-435
OVCAR-3 = system: OVCAR-3
SNB-75 = system: SNB-75
OVCAR-8 = system: OVCAR-8
TK-10 = system: TK-10
Malme-3M = system: Malme-3M
EKVX = system: EKVX
ACHN = system: ACHN
HOP-62 = system: HOP-62

Compound	GI50 (MOLT-4)	GI50 (DU-145)	GI50 (OVCAR-4)	GI50 (CCRF-CEM)	GI50 (MCF7)	GI50 (PC-3)	GI50 (UACC-62)	GI50 (SK-MEL-2)	GI50 (RXF 393)	GI50 (CAKI-1)	GI50 (786-0)	GI50 (MDA-MB-435)	GI50 (OVCAR-3)	GI50 (SNB-75)	GI50 (OVCAR-8)	GI50 (TK-10)	GI50 (Malme-3M)	GI50 (EKVX)	GI50 (ACHN)	GI50 (HOP-62)
CC(=O)c1c(=O)n(-c2ccc(C)cc2)c(O)c2c(N)n[nH]c12	> 100 µM (inactive)	> 100 µM (inactive)	> 100 µM (inactive)	> 100 µM (inactive)	> 100 µM (inactive)	> 100 µM (inactive)	> 100 µM (inactive)	> 100 µM (inactive)	> 100 µM (inactive)	> 100 µM (inactive)	> 100 µM (inactive)	> 100 µM (inactive)	> 100 µM (inactive)	> 100 µM (inactive)	> 100 µM (inactive)	> 100 µM (inactive)	> 100 µM (inactive)	> 100 µM (inactive)		
CCC1=NC(N/N=C/c2ccccc2O)=N/C1=C\c1ccccc1O	6.56 µM (inactive)	18.2 µM (inactive)	5.6 µM (inactive)	3.94 µM (inactive)	5.52 µM (inactive)	15.5 µM (inactive)	9.79 µM (inactive)	12.6 µM (inactive)	18.3 µM (inactive)	19.6 µM (inactive)	6.76 µM (inactive)	13.3 µM (inactive)	2.89 µM (inactive)	17.5 µM (inactive)	8.57 µM (inactive)	11.2 µM (inactive)	12.4 µM (inactive)	10.2 µM (inactive)	4.11 µM (inactive)	8.55 µM (inactive)
O=[N+]([O-])c1ccc(Cc2nc3cc4ccccc4cc3[nH]2)cc1C(F)(F)F	13.1 µM (inactive)	22.1 µM (inactive)	17.5 µM (inactive)	24.3 µM (inactive)	15.5 µM (inactive)	15.4 µM (inactive)		20 µM (inactive)	13.2 µM (inactive)	11.6 µM (inactive)	12.7 µM (inactive)	6.12 µM (inactive)	10.7 µM (inactive)	14.9 µM (inactive)	19 µM (inactive)	20.2 µM (inactive)	9.79 µM (inactive)	25.8 µM (inactive)	15.8 µM (inactive)	13.8 µM (inactive)
CCOC(=O)Cn1c(=O)ccn(COCCO)c1=O	> 100 µM (inactive)	> 100 µM (inactive)	> 100 µM (inactive)	> 100 µM (inactive)	> 100 µM (inactive)	> 100 µM (inactive)		> 100 µM (inactive)	> 100 µM (inactive)	> 100 µM (inactive)		> 100 µM (inactive)	> 100 µM (inactive)	> 100 µM (inactive)	> 100 µM (inactive)	> 100 µM (inactive)	> 100 µM (inactive)	> 100 µM (inactive)	> 100 µM (inactive)	> 100 µM (inactive)
O=CNC(Cc1c[nH]cn1)C(=O)O (stereo not drawn)		> 100 µM (inactive)	> 100 µM (inactive)	> 100 µM (inactive)	> 100 µM (inactive)	> 100 µM (inactive)	> 100 µM (inactive)	> 100 µM (inactive)	> 100 µM (inactive)	> 100 µM (inactive)	> 100 µM (inactive)	> 100 µM (inactive)	> 100 µM (inactive)	> 100 µM (inactive)	> 100 µM (inactive)	> 100 µM (inactive)	> 100 µM (inactive)	> 100 µM (inactive)	> 100 µM (inactive)	> 100 µM (inactive)
CN1CC[N+](C)=C1c1ccccc1	> 100 µM (inactive)	> 100 µM (inactive)	> 100 µM (inactive)	> 100 µM (inactive)	> 100 µM (inactive)	> 100 µM (inactive)		> 100 µM (inactive)	> 100 µM (inactive)	> 100 µM (inactive)	> 100 µM (inactive)	> 100 µM (inactive)	> 100 µM (inactive)	> 100 µM (inactive)	> 100 µM (inactive)	> 100 µM (inactive)	> 100 µM (inactive)	> 100 µM (inactive)	> 100 µM (inactive)	> 100 µM (inactive)
COc1cc([C@@H]2c3cc4c(cc3[C@@H](Nc3ccc([N+](=O)[O-])cc3C(=O)c3ccccc3)[C@H]3COC(=O)[C@H]23)OCO4)cc(OC)c1OC	0.306 µM (active)	0.434 µM (active)	> 41.8 µM (inactive)	0.391 µM (active)	0.26 µM (active)	0.344 µM (active)	0.164 µM (active)	3.28 µM (inactive)	0.573 µM (active)	0.381 µM (active)	0.425 µM (active)	0.071 µM (active)	0.434 µM (active)	> 100 µM (inactive)	0.515 µM (active)	> 100 µM (inactive)	0.481 µM (active)	> 100 µM (inactive)	0.304 µM (active)	0.282 µM (active)
